In doi:10.1101/2024.10.14.618121v2 (biorxiv, 2025):

How the values were obtained:
DENV3 NS5 MTase [1] = target: T1, DENV3 NS5 MTase (dengue virus type 3, UniProt V9TQY8); assay: fluorescence polarization displacement of F-GTP; assay type: binding
T1 sequence (V9TQY8 2491-2753): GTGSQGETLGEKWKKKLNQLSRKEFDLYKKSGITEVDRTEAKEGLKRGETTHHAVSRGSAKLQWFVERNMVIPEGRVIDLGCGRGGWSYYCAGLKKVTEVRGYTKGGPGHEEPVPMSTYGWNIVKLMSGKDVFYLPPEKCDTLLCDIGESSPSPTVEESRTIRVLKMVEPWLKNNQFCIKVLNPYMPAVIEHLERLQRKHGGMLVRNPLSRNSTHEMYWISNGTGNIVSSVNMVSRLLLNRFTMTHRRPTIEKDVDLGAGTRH

DENV3 NS5 MTase [2] = target: T1, DENV3 NS5 MTase; assay: fluorescence polarization displacement of F-GTP; assay type: binding; remark: listed apart in the source

In the case of `O=c1c(O)c(-c2ccc(O)cc2)oc2c(O)c(O)cc(O)c12` [HC, herbacetin], the Ki (DENV3 NS5 MTase [1]) is reported as ~430 nM and the IC50 (DENV3 NS5 MTase [2]) is reported as 770 ± 10 nM.
